Measurements from the supplement of paper PMC11451515.

System: SEM cells
Experiment: cell viability relative to DMSO control; higher = less cytotoxic
Details: 48 h
Outline: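 NOMO1, SEM and P12-Ichikawa leukemia cells spent at least four passages adapting to each medium before use. They were seeded at 500 cells/well (NOMO1, SEM) or 1000 cells/well (P12-Ichikawa) in 5 μl in 1536-well plates and pin-dosed with library compounds in DMSO at 11 threefold steps from 47 μM down to 0.79 nM. After 48 h at 37°C, CellTiter-Glo One luminescence was read. Viability is reported as a percentage of the DMSO wells on each plate, with cell-free wells as background.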

[1] = HPLM + 10% dialyzed FBS, 0.000781 µM
[2] = HPLM + 10% dialyzed FBS, 0.00234 µM
[3] = HPLM + 10% dialyzed FBS, 0.00702 µM
[4] = HPLM + 10% dialyzed FBS, 0.0211 µM
[5] = HPLM + 10% dialyzed FBS, 0.0632 µM
[6] = HPLM + 10% dialyzed FBS, 0.19 µM
[7] = HPLM + 10% dialyzed FBS, 0.569 µM
[8] = HPLM + 10% dialyzed FBS, 1.71 µM
[9] = HPLM + 10% dialyzed FBS, 5.12 µM
[10] = HPLM + 10% dialyzed FBS, 15.4 µM
[11] = HPLM + 10% dialyzed FBS, 46.1 µM
[12] = RPMI 5 mM glucose + 10% FBS, 0.000781 µM
[13] = RPMI 5 mM glucose + 10% FBS, 0.00234 µM
[14] = RPMI 5 mM glucose + 10% FBS, 0.00702 µM
[15] = RPMI 5 mM glucose + 10% FBS, 0.0211 µM
[16] = RPMI 5 mM glucose + 10% FBS, 0.0632 µM
[17] = RPMI 5 mM glucose + 10% FBS, 0.19 µM
[18] = RPMI 5 mM glucose + 10% FBS, 0.569 µM
[19] = RPMI 5 mM glucose + 10% FBS, 1.71 µM
[20] = RPMI 5 mM glucose + 10% FBS, 5.12 µM
[21] = RPMI 5 mM glucose + 10% FBS, 15.4 µM
[22] = RPMI 5 mM glucose + 10% FBS, 46.1 µM
[23] = RPMI 5 mM glucose + 10% dialyzed FBS, 0.000781 µM
[24] = RPMI 5 mM glucose + 10% dialyzed FBS, 0.00234 µM
[25] = RPMI 5 mM glucose + 10% dialyzed FBS, 0.00702 µM
[26] = RPMI 5 mM glucose + 10% dialyzed FBS, 0.0211 µM
[27] = RPMI 5 mM glucose + 10% dialyzed FBS, 0.0632 µM
[28] = RPMI 5 mM glucose + 10% dialyzed FBS, 0.19 µM
[29] = RPMI 5 mM glucose + 10% dialyzed FBS, 0.569 µM
[30] = RPMI 5 mM glucose + 10% dialyzed FBS, 1.71 µM
[31] = RPMI 5 mM glucose + 10% dialyzed FBS, 5.12 µM
[32] = RPMI 5 mM glucose + 10% dialyzed FBS, 15.4 µM
[33] = RPMI 5 mM glucose + 10% dialyzed FBS, 46.1 µM

Compound `CC(C)Oc1cc(Nc2nc(N[C@@H](C)c3ccc(F)cn3)ncc2Cl)n[nH]1` has a cell viability [1] of 106%, a cell viability [2] of 103% and a cell viability [3] of 90.3%. The cell viability [4] was 102%, the cell viability [5] was 96.3% and the cell viability [6] was 80.5%. The cell viability [7] was 50.5%, the cell viability [8] was 34.6% and the cell viability [9] was 26%. For the same compound, the cell viability [10] was 22.1%, the cell viability [11] was 25.3% and the cell viability [12] was 109%. It also gave a cell viability [13] of 83.1%, a cell viability [14] of 96% and a cell viability [15] of 95.6%. The cell viability [16] was 108%, the cell viability [17] was 81.2% and the cell viability [18] was 60.3%. For the same compound, the cell viability [19] was 21.9%, the cell viability [20] was 19.2% and the cell viability [21] was 14.8%. The cell viability [22] was 16.2%, the cell viability [23] was 84.9% and the cell viability [24] was 98%. It also gave a cell viability [25] of 100%, a cell viability [26] of 114% and a cell viability [27] of 83%. It also gave a cell viability [28] of 67.9%, a cell viability [29] of 43.4% and a cell viability [30] of 26.3%. For the same compound, the cell viability [31] was 17.9%, the cell viability [32] was 14.9% and the cell viability [33] was 16.2%.
With `CCN(CC)CCCCNc1nc2cc(Cl)c(Cl)cc2nc1-c1ccc(-c2cccs2)s1` the cell viability [1] was 83.7%, the cell viability [2] was 110% and the cell viability [3] was 27.8%. It also gave a cell viability [4] of 121%, a cell viability [5] of 110% and a cell viability [6] of 102%. For the same compound, the cell viability [7] was 115%, the cell viability [8] was 114% and the cell viability [9] was 107%. The cell viability [10] was 124%, the cell viability [11] was 8.47% and the cell viability [12] was 93.7%. The cell viability [13] was 94.9%, the cell viability [14] was 8.03% and the cell viability [15] was 101%. It also gave a cell viability [16] of 96.8%, a cell viability [17] of 102% and a cell viability [18] of 114%. For the same compound, the cell viability [19] was 98.9%, the cell viability [20] was 107% and the cell viability [21] was 93.9%. The cell viability [22] was 5.71%, the cell viability [23] was 106% and the cell viability [24] was 121%. For the same compound, the cell viability [25] was 26.4%, the cell viability [26] was 130% and the cell viability [27] was 118%. For the same compound, the cell viability [28] was 126%, the cell viability [29] was 116% and the cell viability [30] was 116%. The cell viability [31] was 126%, the cell viability [32] was 131% and the cell viability [33] was 8.47%.
With `C1CCC(C(CC2CCCCN2)C2CCCCC2)CC1` (configuration not stated) the cell viability [1] was 82.6%, the cell viability [2] was 92.2% and the cell viability [3] was 94.9%. The cell viability [4] was 98.3%, the cell viability [5] was 104% and the cell viability [6] was 110%. It also gave a cell viability [7] of 93.5%, a cell viability [8] of 96.9% and a cell viability [9] of 118%. The cell viability [10] was 54.1%, the cell viability [11] was 7.7% and the cell viability [12] was 94.4%. The cell viability [13] was 122%, the cell viability [14] was 93% and the cell viability [15] was 113%. The cell viability [16] was 116%, the cell viability [17] was 117% and the cell viability [18] was 110%. For the same compound, the cell viability [19] was 112%, the cell viability [20] was 111% and the cell viability [21] was 45.1%. It also gave a cell viability [22] of 19.6%, a cell viability [23] of 85.7% and a cell viability [24] of 93.9%. The cell viability [25] was 91.7%, the cell viability [26] was 85.5% and the cell viability [27] was 100%. For the same compound, the cell viability [28] was 86.6%, the cell viability [29] was 96.8% and the cell viability [30] was 110%. The cell viability [31] was 89.9%, the cell viability [32] was 37.7% and the cell viability [33] was 34%.
`OC(=O)\C1=C\N(C2=CC=C(F)C=C2)C3=C(C=C(F)C(=C3)N4CCNCC4)C1=O` was tested, and the cell viability [1] was 89.5%, the cell viability [2] was 101% and the cell viability [3] was 100%. For the same compound, the cell viability [4] was 101%, the cell viability [5] was 105% and the cell viability [6] was 90.7%. For the same compound, the cell viability [7] was 82.4%, the cell viability [8] was 89.4% and the cell viability [9] was 86.4%. The cell viability [10] was 90%, the cell viability [11] was 93.9% and the cell viability [12] was 101%. The cell viability [13] was 108%, the cell viability [14] was 120% and the cell viability [15] was 92.1%. It also gave a cell viability [16] of 114%, a cell viability [17] of 112% and a cell viability [18] of 97.2%. It also gave a cell viability [19] of 95.7%, a cell viability [20] of 110% and a cell viability [21] of 113%. For the same compound, the cell viability [22] was 103%, the cell viability [23] was 103% and the cell viability [24] was 103%. The cell viability [25] was 112%, the cell viability [26] was 125% and the cell viability [27] was 107%. It also gave a cell viability [28] of 111%, a cell viability [29] of 87.5% and a cell viability [30] of 113%. It also gave a cell viability [31] of 95.3%, a cell viability [32] of 95.1% and a cell viability [33] of 87.3%.
Compound `CC(C)[C@@H](C[S+](=O)([O-])C(C)C)N1C(=O)[C@@](C)(CC(=O)O)C[C@H](c2cccc(Cl)c2)[C@H]1c1ccc(Cl)cc1` has a cell viability [1] of 124%, a cell viability [2] of 107% and a cell viability [3] of 125%. The cell viability [4] was 117%, the cell viability [5] was 115% and the cell viability [6] was 106%. It also gave a cell viability [7] of 85.9%, a cell viability [8] of 77.1% and a cell viability [9] of 54.3%. For the same compound, the cell viability [10] was 31.8%, the cell viability [11] was 18.7% and the cell viability [23] was 127%. For the same compound, the cell viability [24] was 109%, the cell viability [25] was 121% and the cell viability [26] was 110%. The cell viability [27] was 128%, the cell viability [28] was 113% and the cell viability [29] was 100%. The cell viability [30] was 70.9%, the cell viability [31] was 47.8% and the cell viability [32] was 26.5%. For the same compound, the cell viability [33] was 18.5%.
In the case of `CCOc1ccc(Nc2nc(-c3c(C)nc4ccccn34)cs2)cc1`, the cell viability [1] is reported as 98.8%, the cell viability [2] is reported as 105% and the cell viability [3] is reported as 111%. The cell viability [4] was 89.9%, the cell viability [5] was 38.5% and the cell viability [6] was 22.3%. For the same compound, the cell viability [7] was 20.4%, the cell viability [8] was 21.1% and the cell viability [9] was 20.1%. It also gave a cell viability [10] of 23.5%, a cell viability [11] of 22.9% and a cell viability [12] of 114%. For the same compound, the cell viability [13] was 107%, the cell viability [14] was 112% and the cell viability [15] was 94.8%. For the same compound, the cell viability [16] was 46.8%, the cell viability [17] was 14.5% and the cell viability [18] was 15.6%. It also gave a cell viability [19] of 13.3%, a cell viability [20] of 15.7% and a cell viability [21] of 14.3%. It also gave a cell viability [22] of 10.9%, a cell viability [23] of 116% and a cell viability [24] of 94.7%. It also gave a cell viability [25] of 96.5%, a cell viability [26] of 110% and a cell viability [27] of 91.1%. It also gave a cell viability [28] of 26.8%, a cell viability [29] of 24.3% and a cell viability [30] of 20.7%. It also gave a cell viability [31] of 19.1%, a cell viability [32] of 19.7% and a cell viability [33] of 18.8%.
Work on `CCN(CC)C(=S)SSC(=S)N(CC)CC` yielded a cell viability [1] of 99.8%, a cell viability [2] of 99.4% and a cell viability [3] of 115%. It also gave a cell viability [4] of 108%, a cell viability [5] of 102% and a cell viability [6] of 85.6%. It also gave a cell viability [7] of 55.2%, a cell viability [8] of 40.4% and a cell viability [9] of 4.49%. For the same compound, the cell viability [10] was 3.73%, the cell viability [11] was 2.19% and the cell viability [12] was 74.9%. It also gave a cell viability [13] of 74.3%, a cell viability [14] of 78.7% and a cell viability [15] of 79.2%. The cell viability [16] was 73.5%, the cell viability [17] was 55.6% and the cell viability [18] was 48.6%. It also gave a cell viability [19] of 32.9%, a cell viability [20] of 2.66% and a cell viability [21] of 1.26%. The cell viability [22] was 0.625%, the cell viability [23] was 87.8% and the cell viability [24] was 97.9%. It also gave a cell viability [25] of 97.2%, a cell viability [26] of 103% and a cell viability [27] of 99.3%. For the same compound, the cell viability [28] was 76.6%, the cell viability [29] was 44.3% and the cell viability [30] was 33.5%. For the same compound, the cell viability [31] was 3.67%, the cell viability [32] was 2.09% and the cell viability [33] was 1.26%.
`Cc1cccc(C#Cc2ccccc2)n1` was tested, and the cell viability [1] was 119%, the cell viability [2] was 140% and the cell viability [3] was 123%. It also gave a cell viability [4] of 134%, a cell viability [5] of 132% and a cell viability [6] of 117%. The cell viability [7] was 137%, the cell viability [8] was 134% and the cell viability [9] was 116%. It also gave a cell viability [10] of 106%, a cell viability [11] of 89.5% and a cell viability [12] of 128%. The cell viability [13] was 118%, the cell viability [14] was 109% and the cell viability [15] was 123%. It also gave a cell viability [16] of 128%, a cell viability [17] of 118% and a cell viability [18] of 128%. For the same compound, the cell viability [19] was 121%, the cell viability [20] was 102% and the cell viability [21] was 105%. It also gave a cell viability [22] of 84.4%.
